Two compounds from paper PMC5007443, “TNIK inhibition abrogates colorectal cancer stemness” (Nature Communications, 2016) can be followed below.

In one assay the target is ITK (Homo sapiens, UniProt Q08881). In words: Kinase selectivity profiling, IL2-inducible T-cell kinase. The settings on record: read-out: Percentage inhibition of ITK. The format is biochemical. Here is the method:
(§1) The selectivity of compounds against a panel of 50 human protein kinases was assessed using a non-radiometric assay.

Another assay addresses DYRK1B (Homo sapiens, UniProt Q9Y463). In words: Kinase selectivity profiling, Dual-specificity tyrosine-phosphorylation regulated kinase 1B. The format is biochemical. The settings on record: read-out: Percentage inhibition of DYRK1B. Here is the method: as §1
A further assay addresses GSK3β (Homo sapiens, UniProt P49841). Briefly: Kinase selectivity profiling, Glycogen synthase kinase 3β. It counts as biochemical. The settings on record: read-out: Percentage inhibition of GSK3β. Here is the method: as §1
For assay [1], the system named is Wnt target genes (AXIN2, MYC, CCND1) and TNIK. Briefly: RT-PCR of TNIK and Wnt target genes in HCT116 cells. Conditions: HCT116, 24 h. The format is cell-based, human. As to the method:
(§2) Total RNA was prepared with an RNeasy Mini Kit (Qiagen). cDNA was synthesized using SuperScript II reverse transcriptase (Thermo Fisher Scientific) or a High-Capacity cDNA reverse transcription kit (Thermo Fisher Scientific) and subjected to TaqMan gene expression assay using pre-designed primer and probe sets (listed in Supplementary Table 3). Amplification data measured as an increase in reporter fluorescence were collected using the StepOne Real-Time PCR System (Thermo Fisher Scientific). The relative mRNA expression level normalized to the internal control (human/mouse β-actin (ACTB/Actb1) gene) was calculated by the comparative threshold cycle (CT) method. Experiments were performed in triplicate and repeated at least two times.

For assay [2], the system named is TNIK, AXIN2, c-MYC, LRP6, LRP5 proteins. Briefly: Immunoblotting of TNIK, AXIN2, c-MYC, LRP6, LRP5 in HCT116 and DLD-1 cells. It counts as cell-based, human. The settings on record: HCT116 and DLD-1, 48 h. Here is the method:
(§3) Protein samples were fractionated by SDS–PAGE and blotted onto Immobilon-P membranes (Millipore) as described previously. After incubation with the primary antibodies (listed in Supplementary Table 4) at 4 °C overnight, the blots were detected with the relevant horseradish peroxidase-conjugated anti-mouse or anti-rabbit IgG antibody (Cell Signaling Technology) and Western lighting ECL Pro (PerkinElmer). Signals were visualized with the LAS-4010 system (GE Healthcare). Uncropped versions of the blots in Figs 2e and 3f are shown in Supplementary Fig. 15.
For orientation: Immunoblotting shows a protein as a band on a membrane.

Assay [3] relates to Wnt-target genes (AXIN2, MYC and CCND1). In words: Pharmacodynamics: Wnt-target gene expression in HCT116 xenografts, RT-PCR. The format is in vivo, mouse. Conditions: single oral dose 90 or 150 mg kg−1 NCB-0846 HCl. Here is the method:
as §2

Assay [4] concerns HCT116 cells. In words: PARP-1 cleavage, immunoblotting. It counts as cell-based, human. Conditions: HCT116, 1 μM, 24 or 48 h. Here is the method:
as §3

The subject of another assay is Apc^min/+ mice. In words: Intestinal tumorigenesis in Apc min/+ mice. It counts as in vivo, mouse. The settings on record: NCB-0846 HCl oral BID 22.5, 45, 90 mg kg−1, 35 days. As to the method: The mouse gut was filled with 10% buffered formalin (Sigma-Aldrich) via the anus immediately after sacrifice and opened longitudinally. The number and maximum diameter/area of tumours were measured by stereoscopic microscopy as described previously. Differences at P values of<0.05 were considered to be statistically significant.

In assay [5] the test system is HCT116 cells. Briefly: Immunoblotting of CSC, mesenchymal and embryonal stem cell markers in HCT116 cells. The format is cell-based, human. Conditions: HCT116, 3 μM, 48 or 72 h. As to the method: as §3
Assay [6] has as its system HCT116 cells. In words: CSC surface marker flow cytometry in HCT116 cells. The settings on record: HCT116, 1 µM, 96 hours. It counts as cell-based, human. As to the method: Cells were collected with Accutase, washed with stain buffer (BD Pharmingen), resuspended in 100 μl stain buffer (5 × 10^5 cells per 100 μl), and incubated with fluorophore-conjugated antibodies or their corresponding isotype-matched control antibodies (Supplementary Table 4) at 4 °C for 30 min. The cells were then washed twice and resuspended in 500 μl of stain buffer. 7-Aminoactinomycin D (7AAD; BD Pharmingen) was added to the samples before analysis. Relative fluorescence intensities were measured using a Guava easy Cyte HT flow cytometer following exclusion of dead cells on the basis of 7AAD incorporation. Data analysis was performed using Guava InCyte software (Merck-Millipore). Experiments were performed in triplicate and repeated at least two times.
On the technique in general: Flow cytometry measures light scatter and fluorescence of single cells or particles in a stream.

Assay [7] deals with patient-derived colon cancer spheroid #19 xenograft. Briefly: Xenograft of patient-derived spheroid #19 in NOD/ShiJic-scid mice. The format is in vivo, mouse. Conditions: NCB-0846 HCl oral 50 or 100 mg kg−1 BID, 6-days-on, 1-day-off. The text has this:
Patient-derived colorectal cancer spheroids were dissociated, resuspended in medium containing 50% Matrigel (Corning), and inoculated subcutaneously (#6; 1 × 10^4 cells per injection, #19; 1 × 10^5 cells per injection) into the flank of female NOD/ShiJic-scid mice (4-week-old females; CLEA Japan). When the tumour volume reached ∼200 mm^3, the mice were randomized according tumour volume (10 mice per group) and treatment was started.
(§4) Tumour volume was estimated based on the formula: (length × width^2)/2. The tumour volume (twice a week) and body weight (every day) of each mouse were recorded. The patient-derived spheroids and xenografts were established after obtaining informed consent from the donors.

Assay [8] relates to CD44 and Ki67 expression in xenografts. In words: Immunohistochemistry of spheroid #6 xenografts. The format is in vivo, mouse. Conditions: spheroid #6 xenografts resected after treatment. Here is the method:
Immunoperoxidase staining (Fig. 6g) was performed using the Ventana DABMap detection kit and an automated slide stainer (Discovery XT, Ventana Medical Systems)[56].

A further assay has as its system PDX COX021. In words: Patient-derived xenograft COX021 in Nu/Nu nude mice. The settings on record: COX021, NCB-0846 HCl oral 45 or 90 mg/kg BID, 5-day on, 2-day off. It counts as in vivo, mouse. Here is the method: (§5) Patient-derived colorectal cancer xenografts […] were established by Shanghai ChemPartner. Female Nu/Nu nude mice aged 5–6 weeks were implanted subcutaneously with the xenografts and randomized into three treatment groups (10 mice per group) based on the developed tumour volume (∼200 mm^3).
as §4
(In general: In xenograft studies the graft and the host belong to different species.)

For a further assay, the system named is PDX COX026. Briefly: Patient-derived xenograft COX026 in Nu/Nu nude mice. It counts as in vivo, mouse. The settings on record: COX026, NCB-0846 HCl oral 45 or 90 mg/kg BID, 5-day on, 2-day off. As to the method:
as §5, §4

Each structure is given as a SMILES string.

Chain of DYRK1B (Q9Y463 whole entry): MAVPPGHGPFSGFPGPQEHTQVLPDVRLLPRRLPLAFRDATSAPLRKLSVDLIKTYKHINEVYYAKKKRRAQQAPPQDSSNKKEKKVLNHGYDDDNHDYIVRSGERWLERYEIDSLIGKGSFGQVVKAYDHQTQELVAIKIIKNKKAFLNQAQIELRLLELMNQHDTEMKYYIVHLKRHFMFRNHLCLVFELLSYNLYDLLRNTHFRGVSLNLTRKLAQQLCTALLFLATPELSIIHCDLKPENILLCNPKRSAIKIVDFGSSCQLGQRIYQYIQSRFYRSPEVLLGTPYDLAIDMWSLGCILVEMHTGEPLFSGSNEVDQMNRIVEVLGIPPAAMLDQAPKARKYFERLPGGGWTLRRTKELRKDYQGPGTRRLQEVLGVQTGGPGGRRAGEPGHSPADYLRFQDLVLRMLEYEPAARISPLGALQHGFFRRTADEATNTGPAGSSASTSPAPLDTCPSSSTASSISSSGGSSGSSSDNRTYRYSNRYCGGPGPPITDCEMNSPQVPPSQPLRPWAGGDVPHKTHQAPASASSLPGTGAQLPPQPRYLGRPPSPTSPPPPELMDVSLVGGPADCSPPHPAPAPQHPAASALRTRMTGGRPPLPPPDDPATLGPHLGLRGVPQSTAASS
Chain of ITK (Q08881 whole entry): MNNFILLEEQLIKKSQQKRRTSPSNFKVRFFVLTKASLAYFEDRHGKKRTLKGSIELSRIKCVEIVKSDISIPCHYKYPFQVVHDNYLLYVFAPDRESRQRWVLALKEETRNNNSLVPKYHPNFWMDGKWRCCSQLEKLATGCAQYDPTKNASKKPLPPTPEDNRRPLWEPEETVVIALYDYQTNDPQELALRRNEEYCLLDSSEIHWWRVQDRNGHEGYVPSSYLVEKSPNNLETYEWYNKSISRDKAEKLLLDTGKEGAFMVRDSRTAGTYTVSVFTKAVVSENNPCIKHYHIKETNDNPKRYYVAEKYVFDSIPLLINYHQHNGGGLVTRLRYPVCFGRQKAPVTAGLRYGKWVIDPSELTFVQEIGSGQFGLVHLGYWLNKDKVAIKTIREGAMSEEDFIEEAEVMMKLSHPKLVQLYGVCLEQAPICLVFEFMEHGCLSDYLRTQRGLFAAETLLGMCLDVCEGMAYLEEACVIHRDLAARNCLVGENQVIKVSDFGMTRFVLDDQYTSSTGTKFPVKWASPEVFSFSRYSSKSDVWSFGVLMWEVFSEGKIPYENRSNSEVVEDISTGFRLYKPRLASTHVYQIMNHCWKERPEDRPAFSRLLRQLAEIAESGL
Chain of GSK3β (P49841 whole entry): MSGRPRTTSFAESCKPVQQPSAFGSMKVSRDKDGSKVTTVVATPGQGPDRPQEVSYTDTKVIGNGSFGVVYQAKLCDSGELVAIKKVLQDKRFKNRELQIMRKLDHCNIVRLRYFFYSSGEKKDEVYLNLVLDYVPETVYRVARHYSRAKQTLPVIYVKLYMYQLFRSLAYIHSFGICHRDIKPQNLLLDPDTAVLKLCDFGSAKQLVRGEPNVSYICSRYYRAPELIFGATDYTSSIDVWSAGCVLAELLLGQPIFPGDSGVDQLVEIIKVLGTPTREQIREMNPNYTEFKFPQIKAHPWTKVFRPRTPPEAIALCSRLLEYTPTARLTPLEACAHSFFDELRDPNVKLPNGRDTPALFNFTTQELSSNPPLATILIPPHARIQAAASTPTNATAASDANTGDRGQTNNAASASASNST

For orientation: inhibition means the relative decrease from the control value, in per cent. As for `O[C@H]1CC[C@@H](Oc2cccc3cnc(Nc4ccc5nc[nH]c5c4)nc23)CC1` [NCB-0846, cis-4-(2-(3H-benzo[d]imidazol-5-ylamino)quinazolin-8-yloxy)cyclohexanol], the inhibition at 0.1 µM on ITK stood at 10%. For the same compound, on DYRK1B, the inhibition at 0.1 µM was 8.9%. The inhibition at 0.1 µM at GSK3β stood at 27.7%. In assay [1], the “expression of AXIN2 gene” value is reported as “reduced”, the “expression of CCND1 gene” value is given as “not affected”, the “expression of MYC gene” value is “reduced” and the “expression of TNIK gene” value was “reduced”. In addition, in assay [2], the “LRP6 and LRP5 protein expression” value is given as “downregulated”; the “expression of TNIK, AXIN2 and cMYC at the protein level” value is “reduced”. The “expression of Wnt-target genes (AXIN2, MYC and CCND1) in xenografts” value in assay [3] is listed as “reduced”. Moreover, in the assay with HCT116 cells [4], the “Cleavage of PARP-1” value was “induction of apoptosis”. In the assay on Apc^min/+ mice, the “effect on colon tumorigenesis” value is recorded as “not statistically significant”; the “multiplicity and dimensions of tumours in the small intestine” value is recorded as “dose dependently reduced”. In the assay on HCT116 cells [5], the “downregulation of expression of putative colorectal CSC markers CD44, CD133, ALDH1” value was “downregulated”; the “embryonal stem cell markers (Oct4, Nanog and Sox2)” value is listed as “not affected”; the “expression of mesenchymal markers (Slug, Snail, Twist, Smad2 and Vimentin)” value was “reduced”. In the assay with HCT116 cells [6], the “proportion of cells showing high expression of CSC surface markers (CD44, CD133, CD166, CD29 and EpCAM)” value was “reduced”. In addition, the growth of tumours entry in [7] was “suppressed”. Besides, in assay [8], the “CD44 expression in xenografts” value is reported as “suppression” and the “Ki67 expression in xenografts” value was “modest decrease”. The “growth of the PDXs” value in the assay with PDX COX021 was “significantly suppressed”. Also, the “growth of the PDXs” value with PDX COX026 is on record as “significantly suppressed”.

Turning to `O[C@H]1CC[C@H](Oc2cccc3cnc(Nc4ccc5nc[nH]c5c4)nc23)CC1` [NCB-0970], the inhibition at 0.1 µM at ITK is 9%; at DYRK1B, -2.4%; on GSK3β, 13.5%. Also, in the assay with HCT116 cells [5], the “downregulation of expression of putative colorectal CSC markers CD44, CD133, ALDH1” value is reported as “not”.
